Experimental data taken from EP4494466A1, “SULFUR-CONTAINING COMPOUNDS AND USE THEREOF” (Consejo Superior de Investigaciones Científicas (CSIC), priority 2023, dated 2025).

Tests used:
Aspergillus niger = assay: Antifungal activity, spore germination inhibition growth assay (MTT); type: cell-based; conditions: A. niger spores, 24 h incubation at 28 °C, 4 replicates
Procedure: (§1) The fungal species Aspergillus niger and Botrytis cinerea came from the fungal collection of institute de Ciencias Agrarias-CSIC, Madrid, Spain where they are maintained. The antifungal activity of the hydrolate extract and fractions were determined using a modified spore germination inhibition growth assay (Sainz, P. et al. Chemical composition and biological activities of Artemisia pedemontana subsp. assoana essential oils and hydrolate. Biomol. 2019, 9). The hydrolate extract or fractions were dissolved in dimethyl sulfoxide (DMSO) at 1% and evaluated at the final concentrations indicated.
(§2) The spore suspensions were 7.5 × 10^5 cells/mL in NaCl 0.9% for A. niger and 1 × 10^7 cells/mL in distilled water for B. cinerea. Amphotericin B (5 µg/mL) was used as a positive control. The samples and spore suspensions (4 replicates) were placed on 96-well plates and incubated for 24 h (28 °C for A. niger and 25 °C for B. cinerea). After the incubation process, 25 µL of an MTT (5 mg/mL) plus menadione (1 mM) solution in RMPIMOPS were added, the plates were incubated again for 3 h, the medium was removed, 200 µL of acidic isopropanol (95% isopropanol and 5% 1 M HCl) was added, and the plates were incubated for another 30 min. The absorbance was read at 490 nm in an Elisa reader. The IC50 values (the effective dose to give 50% inhibition) were calculated by a regression curve of % spore germination inhibition on log dose.

H. lusitanicum = assay: Ixodicidal activity on larvae, cellulose contact toxicity; type: in vivo, Hyalomma lusitanicum; conditions: 24 h contact with treated cellulose, Probit Analysis
Procedure: H. lusitanicum engorged female ticks were collected in central Spain (Finca La Garganta, Ciudad Real) from their host (deer) and maintained at 22-24 °C and 70% RH until oviposition and egg hatching. Resulting larvae (4-6 weeks old) were used for the bioassays (Galisteo Pretel, A. et al. Germacrone derivatives as new insecticidal and acaricidal compounds: a structure-activity relationship. Mol. 2019, 24). Briefly, 50 µL of test solution were added to 25 mg of powdered cellulose at different concentrations (initial concentration of 20 mg/ml) and the solvent was evaporated. For each test, three replicates with 20 larvae each were used. Dead ticks were counted after 24 h of contact with the treated cellulose at the environmental conditions described, using a binocular magnifying glass. The larvicidal activity data are presented as percent mortality corrected according to Schneider-Orelli's formula (Schneider-Orelli, O. Entomologisches praktikum: Einführung in die land- und forstwirtschaftliche Insektenkunde; aus dem entomologischen institut der eidgenössischen technischen hochschule in Zürich; Sauerländer, 1947). Effective lethal doses (LC50 and LC90, the concentration that kills 50% or 90% of the organisms, respectively) were calculated by Probit Analysis (5 serial dilutions, STATGRAPHICS Centurion XVI, version 16.1.02, Statgraphics Technologies, Inc, P.O. Box 134, The Plains, Virginia 20198, USA).

Botrytis cinerea = assay: Antifungal activity, spore germination inhibition growth assay (MTT); type: cell-based; conditions: B. cinerea spores, 24 h incubation at 25 °C, 4 replicates
Procedure: as §1, §2

Row | SMILES | LD50 (95% Confidence Limits) (Aspergillus niger) | LD50 (95% Confidence Limits) (H. lusitanicum) | LD90 (95% Confidence Limits) (H. lusitanicum) | LD50 (95% Confidence Limits) (Botrytis cinerea)
1 | C=CCSCC(C=O)=CC [Compound 1, 2-((allylthio)methyl)but-2-enal] | 78.07 (63.96-95.28)µg/mL | 8.42 (7.72-10.07) µg/mg | 15.62 (13.79-18.38) µg/mg | –
2 | O=CC1=CCCSC1 [Compound 3, 5,6-dihydro-2H-thiopyran-3-carbaldehyde] | 16.96 (7.98-36.03) µg/mL | – | 3.57 (3.20-4.23) µg/mg | 8.79 (5.36-14.43) µg/mL
